In test [1] the test system is subjects with chronic gout and hyperuricemia. As to the kind of experiment: Case study of diacerein and allopurinol combination therapy in subjects with chronic gout and hyperuricemia. To be noted: for blood level of uric acid: visit 1 before diacerein. It is filed as in vivo, human. The procedure: In DIA-DM01 trial described in Example 1, two subjects enrolled in the diacerein group had chronic gout history and were currently treating with allopurinol.
Case 1: A person with history of chronic gout and hyperuricemia was treated with allopurinol since Jan. 2, 2009. Before they were enrolled in the diacerein trial, their medical treatment was unsatisfactory, and their blood level of uric acid was 8.3 mg/dL in visit 1 (Jul. 8, 2009).
Case 2: A person with history of chronic gout and hyperuricemia was treated with allopurinol since Aug. 27, 2009. Before they were enrolled in the diacerein trial, their medical treatment was also unsatisfactory, and their blood level of uric acid was 9.5 mg/dL in visit 1 (Dec. 18, 2009).

The subject of test [2] is type 2 diabetes patients with micro-albuminuria, hyperuricemia sub-group (baseline blood uric acid higher than 7.0 mg/dL). Kind of test: DIA-DM01 trial, hyperuricemia sub-group: blood uric acid level under diacerein 50 mg bid versus placebo. The class given is in vivo, human. To be noted: for patients whose blood uric acid levels achieved normal range: normal: females below 6.0 mg/dL, males below 7.0 mg/dL. From the text:
Objectives: To evaluate the efficacy and safety of diacerein for the treatment of albuminuria in patients with type 2 diabetes mellitus.
Primary Endpoints: To compare the change from baseline in the urinary albumin to creatinine ratio (UACR) after 24 weeks of diacerein or placebo administrated.
Subjects: Male or female type 2 diabetes patients (BMI≦35 kg/m^2) with micro-albuminuria.
Procedure: This was a Phase II, prospective, randomized, double-blind, and parallel comparison study comparing diacerein 50 mg bid (twice a day) versus placebo to albuminuria in patients with type 2 diabetes mellitus.
At the screening visit, patients who fulfilled the enrollment criteria and gave written informed consent entered a three to ten days screening period. During the screening period, the baseline UACR was evaluated. If the baseline UACR was greater than 50 mg/g, the patients were randomized into the […] treatment period in the 1:1 ratio (diacerein versus placebo). All participants were required to be taking stable dose of angiotensin-converting-enzyme (ACE) inhibitors, angiotensin receptor blockers (ARBs), or both, for three months prior to the study. These agents were continued throughout the trial. The hypoglycemic medications were maintained during the study period. The class and/or dosage were changed if clinically indicated. An introduction of a new treatment or any regimen change to the pre-existing co-medication that had hypoglycemic or hyperglycemic potential was allowed during the study with the consent of the clinical investigator.
The hyperuricemia sub-group was assembled from among the subjects with baseline blood uric acid level higher than 7.0 mg/dL. The results of blood uric acid level in the two treatment groups were analyzed by paired t-test of within-group changes.
Subjects (n=76) with diabetic microalbinuria were randomized in a 1:1 ratio to receive twice-daily diacerein 50 mg (n=38), or placebo (n=38) for 24 weeks. The baseline blood levels of uric acid in nine subjects of the diacerein group (2 females and 7 males) and twelve subjects of the placebo group (2 females and 10 males) in the hyperuricemia subgroup were above 7.0 mg/dL, and the mean levels were 8.06 mg/dL and 8.38 mg/dL respectively.

As for `Oc1ncnc2[nH]ncc12` [allopurinol], the “blood level of uric acid” value in test [1] (Case 1, on allopurinol alone) was determined as 8.3 mg/dL; in test [1] (Case 2, on allopurinol alone) it was 9.5 mg/dL.

For `CC(=O)Oc1cccc2c1C(=O)c1c(OC(C)=O)cc(C(=O)O)cc1C2=O` [diacerein, 4,5-bis(acetyloxy)-9,10-dioxo-2-anthracene carboxylic acid], the “patients whose blood uric acid levels achieved normal range” value in test [2] (24-week treatment with diacerein) was “four of the remaining seven patients”; in test [2] (after 12 weeks of diacerein) it was “six of the nine patients”. Besides, the “Uric Acid, Mean” value was 8.06 mg/dL in test [2] (Baseline (before treatment), diacerein group, N=9); 8.0667 mg/dL in test [2] (Baseline (before treatment), diacerein group, N=9, listed as Diacerein); 6.6667 mg/dL in test [2] (week 12, diacerein 50 mg bid, N=9); 6.5571 mg/dL in test [2] (week 24, diacerein 50 mg bid, N=7). Besides, in test [2] (diacerein 50 mg bid, below the upper end of the normal range), the “blood uric acid levels maintained during the treatment period” value is reported as “below 7.0 mg/dL”. The “Uric Acid, Change from baseline” value in test [2] (week 12, diacerein 50 mg bid, N=9, p=0.0037 vs. baseline) was -1.40 mg/dL; in test [2] (week 24, diacerein 50 mg bid, N=7, p=0.0060 vs. baseline) it was -1.34 mg/dL. In addition, the “blood uric acid level” value in test [1] (Case 1, after 24 weeks of diacerein add-on to allopurinol) is 7.5 mg/dL; in test [1] (Case 2, after 12 weeks of diacerein add-on to allopurinol), 6.4 mg/dL. In addition, in test [1] (Case 1, diacerein add-on to allopurinol, 24 weeks), the “acute flares during the treatment period” value is listed as “No acute flares were observed”.

The values above are taken from patent US20120232044A1, “METHODS AND COMPOSITIONS FOR TREATING HYPERURICEMIA AND METABOLIC DISORDERS ASSOCIATED WITH HYPERURICEMIA” (TWi Biotechnology, Inc., priority 2011, published 2012).
